Consider 17 molecules from patent US9227955B2, “Compound having angiogenesis inhibitory activity, method for preparing same, and pharmaceutical composition comprising same” (Boryung Pharmaceutical Co., Ltd., priority 2011, dated 2016).

This data set can be described thus: Cell viability MTS assay (cytotoxicity). It is filed as cell-based. The following applies: human; A-431 cells, 48 hrs incubation; read-out: IC50, MTS assay for cytotoxicity against A-431. As to the method: A-431 ([…], human, ATCC CRL-1555™) cells grown in DMEM (Dulbeco's Modified Eagle's Medium, Gibco #11885) were seeded at a density of 1×10^4 cells/well into 96-well plates and incubated at 37° C. for 18 hrs under the supply of 5% CO2 until the cells stably adhered to the bottom. […] After incubation for 48 hrs in the presence of the test compound, the cells were assayed for viability.
The cells in each well was added with 21 μl of a mixture of 20:1 (v/v) of an MTS solution [(3-(4,5-dimethylthiazol-2-yl)-5-(3-carboxymethoxyphenyl)-2-(4-sulfophenyl)-2H-tetrazolium, Promega, Cat#65421; 2 mg/ml] and a PMS solution [Phenazine methosulfate, Sigma #P9625; 1 mg/ml], and incubated for 2 hrs, followed by measuring absorbance at 490 nm on a microplate reader (Molecular device, spectraMax M2). Relative to the control (media), viability by drug concentration was determined from the measurements of formazan, and the results are given in Table 2, below.
In general terms: Tetrazolium dyes change colour on reduction, which living cells bring about.
As a reminder, the IC50 is the concentration at which inhibition is half-maximal. `O=C(Nc1cccc(Cl)c1)c1cccnc1N[C@H]1CCCN(CCO)C1` [Compound 274, (S)—N-(3-chlorophenyl)-2-[1-(2-hydroxyethyl)piperidin-3-ylamino]nicotinamide]: the IC50 at 48 h stood at 111 µM.

Take `CCCCC(CC)CNC(=O)c1cccnc1NC1CCN(Cc2ccccc2)CC1` (centres unmarked) [Compound 436, 2-(1-Benzylpiperidin-4-ylamino)-N-(2-ethylhexyl)nicotinamide]: the IC50 at 48 h was 34 µM.

Turning to `O=C(Nc1cccc(Cl)c1)c1ccc(Cl)nc1NC1CCN(CCO)CC1` [Compound 311], the IC50 at 48 h is 62.3 µM.

On to `CC(C)(C)OC(=O)N1CCC(Nc2ncccc2C(=O)Nc2cccc(Cl)c2)CC1` [Compound 208, N-(3-Chlorophenyl)-2-(1-tert-butoxycarbamoylpiperidin-4-ylamino)nicotinamide], for which the IC50 at 48 h amounted to 86.1 µM.

Consider `O=C(Nc1cccc(Cl)c1)c1cccnc1NC1CCN(C(C(=O)O)C(=O)O)CC1` [Compound 246, 2-(4-(3-(3-Chlorophenylcarbamoyl)pyridin-2-ylamino)piperidin-1-yl)maloic acid], for which the IC50 at 48 h came to 101 µM.

Turning to `O=C(Nc1ccc(Oc2ccccc2)cc1)c1cccnc1Nc1ccc(Oc2ccccc2)cc1` [Compound 111, 2-(4-Phenoxyanilino)-N-(4-phenoxyphenyl)nicotinamide], the IC50 at 48 h is 135 µM.

Consider `O=C(Nc1cccc(Cl)c1)c1cccnc1N[C@@H]1CCCN(Cc2ccccc2)C1` [Compound 267, (R)-2-(1-benzylpiperidin-3-ylamino)-N-(3-chlorophenyl)nicotinamide], for which the IC50 at 48 h is 20.9 µM.

Take `CCCCC(CC)CNC(=O)c1cccnc1NC1CC(C)(C)NC(C)(C)C1` (centres unmarked) [Compound 517, N-(2-ethylhexyl)-2-(2,2,6,6-tetramethylpiperidin-4-ylamino)nicotinamide]: the IC50 at 48 h stood at 50.7 µM.

Turning to `C=CCN1CCC(Nc2ncccc2C(=O)Nc2cccc(Cl)c2)CC1` [Compound 243], the IC50 at 48 h turned out to be 170 µM.

Take `O=C(Nc1cccc(Cl)c1)c1cc(F)c(Cl)nc1NC1CCN(Cc2ccccc2)CC1` [Compound 302, 2-(1-benzylpiperidin-4-ylamino)-6-chloro-N-(3-chlorophenyl)-5-fluoronicotinamide]: the IC50 at 48 h amounted to 38.1 µM.

With `CC1(C)CC(Nc2ncccc2C(=O)Nc2cccc(Cl)c2)CC(C)(C)N1` [Compound 201, N-(3-Chlorophenyl)-2-(2,2,6,6-tetramethylpiperidin-4-ylamino)nicotinamide], the half-inhibitory concentration (IC50) at 48 h was found to be 54.5 µM.

As to `O=C(Nc1cccc(Cl)c1)c1cccnc1N[C@@H]1CCCNC1` [Compound 269, (R)—N-(3-chlorophenyl)-2-(3-piperidylamino)nicotinamide], the IC50 at 48 h was determined as 88.9 µM.

Consider `O=C(Nc1cccc(Cl)c1)c1cccnc1Nc1ccc(Oc2ccccc2)cc1` [Compound 104, N-(3-Chlorophenyl)-2-(4-phenoxyanilino)nicotinamide], for which the IC50 at 48 h is 28.6 µM.

On to `CC1(C)CNc2cc(NC(=O)c3cccnc3NC3CCN(Cc4ccccc4)CC3)ccc21` [Compound 117, 2-(1-Benzylpiperidin-4-ylamino)-N-(3,3-dimethyl-2,3-dihydro-1H-indol-6-yl)nicotinamide], for which the IC50 at 48 h was found to be 91.1 µM.

`O=C(Nc1cccc(Cl)c1)c1ccc(Cl)nc1NC1CCN(Cc2ccccc2)CC1` [Compound 301, 2-(1-Benzylpiperidin-4-ylamino)-6-chloro-N-(3-chlorophenyl)nicotinamide]: the IC50 at 48 h was determined as 67.6 µM.

As to `CCN(CC)CCN1CCC(Nc2ncccc2C(=O)Nc2cccc(Cl)c2)CC1` [Compound 244, N-(3-chlorophenyl)-2-[1-(2-N,N-diethylamino-ethyl)piperidin-4-ylamino]nicotinamide], the IC50 at 48 h turned out to be 94.6 µM.

For `CCCCC(CC)CNC(=O)c1ccc(Cl)nc1NC1CCN(CCO)CC1` (centres unmarked) [Compound 515, 6-Chloro-N-(2-ethylhexyl)-2-[1-(2-hydroxyethyl)piperidin-4-ylamino]nicotinamide], the IC50 at 48 h came to 23.8 µM.
